According to ChEMBL document CHEMBL6092206, “Discovery and Characterization of BAY-184: A New Potent and Selective Acylsulfonamide-Benzofuran In Vivo-Active KAT6AB Inhibitor” (J Med Chem, 2024):
Calls of active or inactive are those of the source. No cut-off for these calls is given here.

Tests used:
[1] = target: Voltage-gated inwardly rectifying potassium channel KCNH2 (Homo sapiens, UniProt Q12809); assay: Inhibition of hERG; assay type: toxicity
[2] = Mutagenicity in Escherichia coli WP2 uvrA by Ames test; assay type: toxicity
[3] = Metabolic stability in mouse hepatocyte assessed as maximum bioavailability of the drug measured for 2 to 90 mins by LC-MS/MS analysis; assay type: ADME; settings: hepatocytes, time 2-90 min, read-out: Fmax
MDA-MB-361 = assay: Antiproliferative activity against human MDA-MB-361 cells assessed as inhibition of cell growth incubated for 6 days by alamar blue staining based assay relative to control; assay type: functional; settings: time 6 day
[4] = Oral bioavailability in male Wistar rat at 1 mg/kg measured upto 24 hrs by LC-MS/S analysis; assay type: ADME, organism-based; settings: in vivo
[5] = Plasma protein binding in human assessed as unbound fraction equilibrium dialysis based LC-MS/MS analysis; assay type: ADME, cell-free
[6] = Mutagenicity in Salmonella typhimurium TA100 by Ames test; assay type: toxicity; settings: salmonella enterica subsp. enterica serovar typhimurium
[7] = Stability of compound in HCL buffer at pH 1 measured for 24 hrs by HPLC analysis; assay type: physicochemical; settings: pH 1, 24 h
[8] = Metabolic stability in dog hepatocyte assessed as maximum bioavailability of the drug measured for 2 to 90 mins by LC-MS/MS analysis; assay type: ADME, Canis lupus familiaris; settings: hepatocytes, time 2-90 min, read-out: Fmax
[9] = Metabolic stability in dog hepatocyte assessed as clearance measured for 2 to 90 mins by LC-MS/MS analysis; assay type: ADME, cell-based, Canis lupus familiaris; settings: hepatocytes, time 2-90 min
[10] = Metabolic stability in dog liver microsome assessed as maximum bioavailability of the drug measured for 2 to 60 mins by LC-MS/MS analysis; assay type: ADME, Canis lupus familiaris; settings: liver microsomes, time 2-60 min, read-out: Fmax
[11] = Metabolic stability in rat liver microsome assessed as maximum bioavailability of the drug measured for 2 to 60 mins by LC-MS/MS analysis; assay type: ADME; settings: liver microsomes, time 2-60 min, read-out: Fmax
[12] = Volume of distribution at steady state in mouse at 0.5 mg/kg, iv; assay type: ADME, organism-based; settings: in vivo, read-out: Vdss
ZR-75-1 [13] = assay: Antitumor activity against human ZR-75-1 cells xenografted in female estradiol-primed NMRI mouse assessed as reduction in H3K23 acetylation level in tumor at 100 mg/kg, po administered twice daily measured after 24 hrs by immunohistochemical analysis; assay type: functional, organism-based
[14] = Clearance in mouse at 0.5 mg/kg, iv; assay type: ADME, organism-based; settings: in vivo
[15] = Metabolic stability in human liver microsome assessed as maximum bioavailability of the drug measured for 2 to 60 mins by LC-MS/MS analysis; assay type: ADME; settings: liver microsomes, time 2-60 min, read-out: Fmax
BT-549 = assay: Antiproliferative activity against human BT-549 cells assessed as inhibition of cell growth incubated for 6 days by alamar blue staining based assay relative to control; assay type: functional; settings: time 6 day
HCC1428 = assay: Antiproliferative activity against human HCC1428 cells assessed as inhibition of cell growth incubated for 6 days by alamar blue staining based assay relative to control; assay type: functional; settings: time 6 day
ZR-75-1 [16] = assay: Antitumor activity against human ZR-75-1 cells xenografted in female estradiol-primed NMRI mouse assessed as reduction in H3K23 acetylation level in tumor at 100 mg/kg, po administered twice daily measured after 1 to 3 hrs by immunohistochemical analysis; assay type: functional, organism-based; settings: time 1-3 hrs
[17] = Metabolic stability in mouse liver microsome assessed as clearance measured for 2 to 60 mins by LC-MS/MS analysis; assay type: ADME; settings: microsomes, time 2-60 min
[18] = target: Histone acetyltransferase p300 (Homo sapiens, UniProt Q09472); assay: Inhibition of GST-tagged human recombinant p300 (965 to 1810 residues) expressed in Sf9 insect cells using H3-derived peptide as substrate incubated for 30 mins in presence of AcCoA by TR-FRET assay
Chain of Histone acetyltransferase p300 (Q09472 whole entry, the tested form may be a part): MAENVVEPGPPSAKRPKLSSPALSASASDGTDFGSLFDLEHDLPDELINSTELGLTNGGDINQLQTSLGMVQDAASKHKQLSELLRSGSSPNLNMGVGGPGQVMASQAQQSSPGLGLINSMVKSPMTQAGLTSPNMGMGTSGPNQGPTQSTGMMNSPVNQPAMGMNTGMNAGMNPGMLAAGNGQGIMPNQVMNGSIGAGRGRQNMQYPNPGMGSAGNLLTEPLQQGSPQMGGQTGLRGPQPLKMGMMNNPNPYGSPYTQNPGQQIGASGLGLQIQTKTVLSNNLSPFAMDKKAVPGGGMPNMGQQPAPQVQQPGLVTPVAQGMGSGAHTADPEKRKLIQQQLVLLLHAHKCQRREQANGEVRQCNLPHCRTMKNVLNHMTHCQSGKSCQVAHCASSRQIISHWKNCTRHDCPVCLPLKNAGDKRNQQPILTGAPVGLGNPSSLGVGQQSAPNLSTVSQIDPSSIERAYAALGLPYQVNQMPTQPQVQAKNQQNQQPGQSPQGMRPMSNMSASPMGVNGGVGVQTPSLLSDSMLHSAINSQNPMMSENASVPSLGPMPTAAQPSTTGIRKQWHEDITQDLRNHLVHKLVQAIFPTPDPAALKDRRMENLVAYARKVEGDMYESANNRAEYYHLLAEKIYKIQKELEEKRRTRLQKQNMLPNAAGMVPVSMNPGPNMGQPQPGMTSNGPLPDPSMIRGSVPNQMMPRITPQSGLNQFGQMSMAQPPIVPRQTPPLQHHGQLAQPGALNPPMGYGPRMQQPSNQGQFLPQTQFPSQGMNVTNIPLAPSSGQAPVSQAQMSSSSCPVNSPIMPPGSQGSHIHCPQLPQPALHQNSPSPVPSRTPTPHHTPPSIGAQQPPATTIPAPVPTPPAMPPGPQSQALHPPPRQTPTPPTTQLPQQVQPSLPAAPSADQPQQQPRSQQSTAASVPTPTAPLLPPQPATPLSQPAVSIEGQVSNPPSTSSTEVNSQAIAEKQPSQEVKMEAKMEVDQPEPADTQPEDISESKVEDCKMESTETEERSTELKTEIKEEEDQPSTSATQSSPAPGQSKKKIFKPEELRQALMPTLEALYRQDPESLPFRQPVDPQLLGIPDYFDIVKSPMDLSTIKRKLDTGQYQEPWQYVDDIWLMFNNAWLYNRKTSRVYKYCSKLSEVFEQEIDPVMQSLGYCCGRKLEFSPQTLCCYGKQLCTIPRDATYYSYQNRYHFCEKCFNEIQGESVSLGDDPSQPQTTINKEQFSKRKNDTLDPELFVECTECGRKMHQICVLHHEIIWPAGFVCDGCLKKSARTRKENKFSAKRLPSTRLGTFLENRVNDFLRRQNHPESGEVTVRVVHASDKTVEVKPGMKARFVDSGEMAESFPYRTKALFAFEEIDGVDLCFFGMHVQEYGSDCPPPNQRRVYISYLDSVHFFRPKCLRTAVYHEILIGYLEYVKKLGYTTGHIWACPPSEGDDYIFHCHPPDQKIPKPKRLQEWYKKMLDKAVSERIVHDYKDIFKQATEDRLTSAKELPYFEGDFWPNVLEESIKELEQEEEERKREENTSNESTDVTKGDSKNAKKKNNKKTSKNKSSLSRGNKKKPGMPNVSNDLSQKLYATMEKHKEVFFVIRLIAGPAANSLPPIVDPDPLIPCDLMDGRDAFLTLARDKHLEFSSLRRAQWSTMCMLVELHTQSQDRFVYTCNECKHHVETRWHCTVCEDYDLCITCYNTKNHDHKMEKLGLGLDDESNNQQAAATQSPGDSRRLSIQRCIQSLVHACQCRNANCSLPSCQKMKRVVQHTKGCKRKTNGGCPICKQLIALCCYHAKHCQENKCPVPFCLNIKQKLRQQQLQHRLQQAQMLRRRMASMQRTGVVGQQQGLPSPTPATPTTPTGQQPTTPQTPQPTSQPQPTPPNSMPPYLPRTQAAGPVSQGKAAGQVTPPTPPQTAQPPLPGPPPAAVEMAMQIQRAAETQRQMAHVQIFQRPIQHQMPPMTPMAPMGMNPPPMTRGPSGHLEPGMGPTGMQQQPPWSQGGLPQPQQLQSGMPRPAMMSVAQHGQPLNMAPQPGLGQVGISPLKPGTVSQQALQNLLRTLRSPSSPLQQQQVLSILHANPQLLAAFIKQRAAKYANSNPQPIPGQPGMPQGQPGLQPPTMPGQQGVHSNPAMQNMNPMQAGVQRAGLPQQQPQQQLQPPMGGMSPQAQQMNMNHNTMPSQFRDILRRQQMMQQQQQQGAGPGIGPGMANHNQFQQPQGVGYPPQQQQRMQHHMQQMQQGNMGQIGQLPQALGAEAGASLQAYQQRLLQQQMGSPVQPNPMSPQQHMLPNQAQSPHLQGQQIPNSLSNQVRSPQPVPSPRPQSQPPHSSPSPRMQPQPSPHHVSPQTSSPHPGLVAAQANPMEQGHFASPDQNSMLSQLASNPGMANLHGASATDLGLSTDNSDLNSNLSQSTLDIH

[19] = Stability in human plasma assessed as parent compound remaining after 4 hrs; assay type: ADME, cell-free
[20] = Metabolic stability in rat hepatocyte assessed as maximum bioavailability of the drug measured for 2 to 90 mins by LC-MS/MS analysis; assay type: ADME; settings: hepatocytes, time 2-90 min, read-out: Fmax
ZR-75-1 [21] = assay: Antitumor activity against human ZR-75-1 cells xenografted in po dosed female estradiol-primed NMRI mouse assessed as inhibition of tumor growth administered twice daily measured at 2 to 3 days; assay type: functional, organism-based; settings: time 2-3 day
[22] = Mutagenicity in Salmonella typhimurium TA98 by Ames test; assay type: toxicity; settings: salmonella enterica subsp. enterica serovar typhimurium
[23] = Antiproliferative activity against human HCC1500 cells assessed as inhibition of cell growth incubated for 6 days by alamar blue staining based assay relative to control; assay type: functional; settings: time 6 day
[24] = Mutagenicity in Salmonella typhimurium TA1535 by Ames test; assay type: toxicity; settings: salmonella enterica subsp. enterica serovar typhimurium
[25] = Metabolic stability in human hepatocyte assessed as clearance measured for 2 to 90 mins by LC-MS/MS analysis; assay type: ADME, cell-based; settings: hepatocytes, time 2-90 min
MCF7 = assay: Antiproliferative activity against human MCF7 cells assessed as inhibition of cell growth incubated for 6 days by alamar blue staining based assay relative to control; assay type: functional; settings: time 6 day
[26] = Plasma protein binding in rat assessed as unbound fraction equilibrium dialysis based LC-MS/MS analysis; assay type: ADME, cell-free

Chain of Voltage-gated inwardly rectifying potassium channel KCNH2 (Q12809 whole entry): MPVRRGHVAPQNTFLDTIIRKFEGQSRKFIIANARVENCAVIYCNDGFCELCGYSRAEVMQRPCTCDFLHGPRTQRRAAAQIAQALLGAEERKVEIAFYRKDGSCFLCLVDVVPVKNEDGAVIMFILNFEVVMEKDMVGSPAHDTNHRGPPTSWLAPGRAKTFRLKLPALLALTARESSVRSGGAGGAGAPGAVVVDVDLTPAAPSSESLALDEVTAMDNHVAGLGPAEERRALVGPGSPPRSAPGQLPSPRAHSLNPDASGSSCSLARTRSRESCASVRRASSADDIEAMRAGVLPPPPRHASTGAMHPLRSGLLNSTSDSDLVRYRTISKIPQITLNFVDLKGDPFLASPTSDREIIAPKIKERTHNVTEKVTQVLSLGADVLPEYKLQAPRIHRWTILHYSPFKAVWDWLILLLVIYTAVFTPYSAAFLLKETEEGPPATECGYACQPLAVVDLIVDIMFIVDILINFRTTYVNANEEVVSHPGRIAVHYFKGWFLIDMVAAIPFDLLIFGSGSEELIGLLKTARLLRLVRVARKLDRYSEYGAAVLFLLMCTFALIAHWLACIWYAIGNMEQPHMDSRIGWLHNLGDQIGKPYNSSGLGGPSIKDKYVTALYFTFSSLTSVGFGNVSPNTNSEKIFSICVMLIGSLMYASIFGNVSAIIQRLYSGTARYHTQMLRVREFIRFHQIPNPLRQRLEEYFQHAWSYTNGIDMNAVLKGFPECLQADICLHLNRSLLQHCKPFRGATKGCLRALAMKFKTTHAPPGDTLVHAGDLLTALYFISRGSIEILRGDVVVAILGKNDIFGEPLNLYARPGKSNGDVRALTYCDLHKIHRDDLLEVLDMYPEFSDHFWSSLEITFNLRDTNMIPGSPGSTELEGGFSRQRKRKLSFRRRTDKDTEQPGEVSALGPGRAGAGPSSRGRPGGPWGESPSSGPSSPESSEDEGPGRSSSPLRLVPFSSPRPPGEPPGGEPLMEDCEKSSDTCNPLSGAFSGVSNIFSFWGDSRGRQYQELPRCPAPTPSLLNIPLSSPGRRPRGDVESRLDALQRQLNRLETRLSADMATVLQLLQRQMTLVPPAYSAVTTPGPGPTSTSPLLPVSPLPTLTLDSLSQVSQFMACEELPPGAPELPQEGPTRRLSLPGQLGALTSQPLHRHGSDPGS

CN(C)c1ccc2cc(C(=O)NS(=O)(=O)c3ccccc3-c3ccccc3)oc2c1
inhibition (INH) [1]: Not_active | Activity [2]: Non-toxic | Fh [3]: 33% | inhibition (INH) (MDA-MB-361): 22% | bioavailability [4]: 60% | Fu [5]: 0.042% | Activity [6]: Non-toxic | Stability [7]: Stable | Fh [8]: 53% | CLH [9]: 16.5 mL/min/kg | Fh [10]: 80% | Fh [11]: 28% | Vd [12]: 0.32 L/kg | Activity (ZR-75-1 [13]): Active | clearance [14]: 9.33 mL/min/kg | Fh [15]: 41% | inhibition (INH) (BT-549): 0% | inhibition (INH) (HCC1428): 51% | Activity (ZR-75-1 [16]): Active | CLH [17]: 63.3 mL/min/kg | IC50 [18]: > 10 µM | Stability [19]: Stable | Fh [20]: 42% | Activity (ZR-75-1 [21]): Dose-dependent-effect | Activity [22]: Non-toxic | inhibition (INH) [23]: 49% | Activity [24]: Non-toxic | CLH [25]: 16.5 mL/min/kg | inhibition (INH) (MCF7): 66% | Fu [26]: 0.048%
